Source: patent US20260069643A1, “COMBINATIONS COMPRISING VITAMIN B2 AND LACTOBACILLUS RHAMNOSUS” (DSM IP Assets B.V., priority 2022, published 2026)

Experiments:
Akkermansiaceae = assay: Long-term SHIME fermentation (colon model), 16S rRNA gene sequencing and flow cytometry: abundance of Akkermansiaceae; conditions: FIG. 2, mucus of the transverse colon, end of three-week treatment vs end of control period (n=3), probiotic 1*10^10 CFU/reactor, vitamin B2 10 mg/day, significance p<0.05
Source text: (§1) The typical reactor setup of the SHIME®, representing the gastrointestinal tract of the adult human, was described by Molly et al. (1993) Applied Microbiology and Biotechnology 39(2):254-258. Inoculum preparation, retention time, pH, temperature settings and reactor feed composition were previously described by Possemiers et al. (2004) FEMS Microbiol Ecol. 49(3):495-507. Compared to the typical setup of the SHIME, the long-term SHIME experiment used for this example included some adaptations. In one reactor, at first, the conditions of the stomach were simulated, before being changed by the computer to conditions simulating the small intestine. […]
(§2) Samples for quantitative 16S-targeted Illumina sequencing were collected 3×/week during the last week of the control and treatment period. […] The obtained high-resolution proportional phylogenetic information (i.e., proportional abundances (%)) was combined with an accurate quantification of total bacterial cells via flow cytometry to obtain quantitative data at phylum, family, and species level. […] Samples were analyzed on a BD Facsverse (BDBiosciences, Erembodegem, Belgium) using the high-flowrate setting and bacteria were separated from medium debris and signal noise by applying a threshold level of 200 on the SYTO channel. […]

Verrucomicrobia = assay: Long-term SHIME fermentation (colon model), 16S rRNA gene sequencing and flow cytometry: abundance of Verrucomicrobia; conditions: FIG. 1, mucus of the transverse colon, end of three-week treatment vs end of control period (n=3), probiotic 1*10^10 CFU/reactor, vitamin B2 10 mg/day, significance p<0.05
Source text: as §1, §2

Akkermansia muciniphila = assay: Long-term SHIME fermentation (colon model), 16S rRNA gene sequencing and flow cytometry: abundance of Akkermansia muciniphila; conditions: FIG. 3, mucus of the transverse colon, end of three-week treatment vs end of control period (n=3), probiotic 1*10^10 CFU/reactor, vitamin B2 10 mg/day, significance p<0.05
Source text: as §1, §2

Lactobacillus rhamnosus GG
did not significantly change: abundance of Akkermansiaceae compared to the control (Akkermansiaceae) | abundance of Verrucomicrobia compared to the control (Verrucomicrobia) | abundance of Akkermansia muciniphila compared to the control (Akkermansia muciniphila)
